Here are results for one compound from patent US20230117680A1, “CYCLOPHILIN D INHIBITORS AND USES THEREOF” (The Broad Institute, Inc., priority 2019, published 2023).

Holding throughout (type): biochemical
What all share (conditions): result in words

In test [1] the test system is 10 other cyclophilins with reported prolyl isomerase activity. In words: cyclophilin specificity screen: CypD against the other cyclophilins. From the text:
The selectivity of a compound described herein in inhibiting the activity of a first cyclophilin (e.g., CypD) over a second cyclophilin may be measured by the quotient of the IC50 value of the compound in inhibiting the activity of the second cyclophilin over the IC50 value of the compound in inhibiting the activity of the first cyclophilin. The selectivity of a compound described herein in modulating the activity of a first cyclophilin over a second cyclophilin may also be measured by the quotient of the Kd value of an adduct of the compound and the second cyclophilin over the Kd value of an adduct of the compound and the first cyclophilin (e.g., CypD). […] In certain embodiments, selectivity for inhibiting a first cyclophilin over other cyclophilins is measured by Surface Plasmon Resonance (SPR) assays as disclosed in the Examples.
Following the synthesis of the indicated library members, in vitro inhibition (IC50) assays of these hits were conducted to obtain IC50 inhibitory data. For the IC50 assays, a chymotrypsin coupled PPIase assay using Suc-AAPF-AMC as the peptide substrate was used, whereby isomerization of a peptide substrate Suc-AAPF-AMC from the cis to trans conformation allowed for proteolysis via excess a-chymotrypsin, releasing the C-terminal coumarin fluorophore.
Subsequently, to determine if the compounds could both access the S2 pocket and display CypD specificity, JOMBtrans and compound 49 were screened against the 10 other cyclophilins with reported prolyl isomerase activity. […] Co-crystal structures of JOMBtrans and 49 were solved with CypD.

Another test has as its target T1, NKTR (Homo sapiens, UniProt P30414).
T1 sequence (P30414 1-1462): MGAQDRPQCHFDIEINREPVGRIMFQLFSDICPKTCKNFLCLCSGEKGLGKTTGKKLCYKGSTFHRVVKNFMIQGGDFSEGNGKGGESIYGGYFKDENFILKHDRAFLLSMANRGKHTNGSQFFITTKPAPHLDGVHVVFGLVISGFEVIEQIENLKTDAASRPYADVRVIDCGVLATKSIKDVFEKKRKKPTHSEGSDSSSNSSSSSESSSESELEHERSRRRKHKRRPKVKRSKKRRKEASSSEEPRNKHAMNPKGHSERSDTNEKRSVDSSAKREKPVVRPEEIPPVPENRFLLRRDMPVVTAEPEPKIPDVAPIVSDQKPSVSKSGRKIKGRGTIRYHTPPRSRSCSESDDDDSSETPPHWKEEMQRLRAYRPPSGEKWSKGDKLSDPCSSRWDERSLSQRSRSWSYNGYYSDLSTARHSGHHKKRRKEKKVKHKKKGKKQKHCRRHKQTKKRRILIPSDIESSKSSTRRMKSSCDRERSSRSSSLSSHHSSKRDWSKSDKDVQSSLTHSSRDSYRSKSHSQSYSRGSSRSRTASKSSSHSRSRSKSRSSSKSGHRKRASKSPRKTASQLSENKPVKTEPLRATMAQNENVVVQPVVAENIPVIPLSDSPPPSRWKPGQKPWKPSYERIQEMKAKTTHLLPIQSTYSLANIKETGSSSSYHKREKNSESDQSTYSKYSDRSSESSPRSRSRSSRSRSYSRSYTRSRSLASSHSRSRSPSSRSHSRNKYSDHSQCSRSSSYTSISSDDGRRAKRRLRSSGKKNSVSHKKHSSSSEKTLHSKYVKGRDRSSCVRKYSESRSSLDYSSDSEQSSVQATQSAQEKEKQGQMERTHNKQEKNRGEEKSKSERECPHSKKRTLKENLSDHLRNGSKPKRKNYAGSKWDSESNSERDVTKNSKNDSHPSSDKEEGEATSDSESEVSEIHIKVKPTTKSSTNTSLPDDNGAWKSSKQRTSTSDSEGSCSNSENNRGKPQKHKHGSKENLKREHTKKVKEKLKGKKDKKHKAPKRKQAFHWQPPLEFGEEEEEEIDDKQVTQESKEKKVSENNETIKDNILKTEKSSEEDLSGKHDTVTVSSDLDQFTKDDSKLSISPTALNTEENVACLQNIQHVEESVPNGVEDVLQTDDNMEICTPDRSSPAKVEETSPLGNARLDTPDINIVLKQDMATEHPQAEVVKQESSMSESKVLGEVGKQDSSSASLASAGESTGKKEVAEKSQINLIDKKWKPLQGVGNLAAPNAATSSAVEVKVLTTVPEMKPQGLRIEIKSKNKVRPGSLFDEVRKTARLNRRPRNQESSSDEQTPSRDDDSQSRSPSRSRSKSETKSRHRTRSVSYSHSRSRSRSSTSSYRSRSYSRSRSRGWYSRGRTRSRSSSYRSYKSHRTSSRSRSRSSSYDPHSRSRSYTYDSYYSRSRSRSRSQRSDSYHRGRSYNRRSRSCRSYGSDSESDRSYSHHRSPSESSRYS
Kind of test: chymotrypsin coupled PPIase assay, NKTR inhibition. The protocol: (§1) Following the synthesis of the indicated library members, in vitro inhibition (IC50) assays of these hits were conducted to obtain IC50 inhibitory data. For the IC50 assays, a chymotrypsin coupled PPIase assay using Suc-AAPF-AMC as the peptide substrate was used, whereby isomerization of a peptide substrate Suc-AAPF-AMC from the cis to trans conformation allowed for proteolysis via excess a-chymotrypsin, releasing the C-terminal coumarin fluorophore. […] Other non-inhibitor library members were also checked for binding via SPR, but produced the same profile as the prolyl isomerase assay.
(§2) Subsequently, to determine if the compounds could both access the S2 pocket and display CypD specificity, JOMBtrans and compound 49 were screened against the 10 other cyclophilins with reported prolyl isomerase activity. […] Co-crystal structures of JOMBtrans and 49 were solved with CypD. […] Three further H-bonds with the macrocycle's backbone and CypD were observed along with a cation-n interaction. […] The benzyl group on the piperidine ring altered the conformation of the macrocycle to open up two new hydrogen bonding interactions with CypD. […] This improvement in specificity compared to JOMBtrans signified that more CypD specific compounds can be garnered by derivatization into the S2 pocket.

The target in another test is CypH (Homo sapiens, UniProt O43447). Kind of test: chymotrypsin coupled PPIase assay, CypH inhibition. The protocol:
as §1, §2

CypH, sequence (O43447 whole entry): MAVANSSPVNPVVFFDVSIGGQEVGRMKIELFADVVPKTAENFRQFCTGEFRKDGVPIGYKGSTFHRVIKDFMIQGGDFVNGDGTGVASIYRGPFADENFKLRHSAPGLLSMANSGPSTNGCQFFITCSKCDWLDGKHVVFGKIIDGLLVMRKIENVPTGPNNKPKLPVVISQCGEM

As for `NCCOCCNC(=O)[C@@H]1CCNC(=O)/C=C/C(=O)N2CCC[C@H](C2)C(=O)N[C@@H](Cc2ccc(C(=O)c3ccccc3)cc2)C(=O)NCc2ccccc2CC(=O)N1` [compound 27], the “specificity / selectivity profile for CypD (in words)” value in test [1] is on record as “improvement in specificity for CypD”. Also, on NKTR, the “inhibition of NKTR” value was “Almost complete ablation of inhibition profiles”. In addition, the “inhibition of CypH” value against CypH is on record as “Almost complete ablation of inhibition profiles”.
